Laboratory results from US20060165683A1, “Methods and compositions for control of bone formation via modulation of sympathetic tone” (priority 2001, published 2006).

How the values were obtained:
[1] = system: murine primary osteoblasts; test: cAMP production in murine primary osteoblasts; format: cell-based, mouse; conditions: added with isoproterenol or norepinephrine
Description: (§1) Primary osteoblast cultures were established as previously described (see, e.g., Ducy et al., 2000, Cell 100: 197-207) and maintained in αMEM/0.1 mg/ml ascorbic acid supplemented with 10% FBS. SaOS-2 were grown in MEM/10% FBS. For cAMP assay confluent cultures were incubated with serum free medium containing 100 μM IBMX (3-isobutyl-1-methylxanthine, Sigma) for 8 minutes before PBS, PTH(1-34) (Bachem), isoproterenol, norepinephrine, phenylephrine (Sigma) or propranolol were added for 5 min. Intracellular cAMP concentration was measured by immunoassay (R&D Systems). For gene expression analyses, primary osteoblasts were treated for 72 hours with appropriate drugs in 0.1% FBS. Hormone serum levels were quantified using immunoassays kits from Peninsula Laboratories (Insulin) or Alpco Diagnostics (leptin). Deoxypyridinoline cross-links and Creatinine were measured in morning urines using the Quidel kits. a1(I) leptin bioactivity was verified by cotransfection of 293 cells expressing ObRb with a STAT3-responsive-luc reporter construct, pSVβgal plasmid and a1(I) leptin expression vector or mock. Twenty-four hours later luciferase and β-galactosidase activities were measured. Data represents ratios of luciferase/β-galactosidase activities, and values are mean of 6 independent transfection experiments.
For a sympathetic regulation of bone formation to exist several requirements have to be fulfilled. The first one is that functional adrenergic receptors are present on osteoblasts. […] Immunohistochemical analysis of long bones from transgenic mice expressing LacZ under the control of the osteoblast-specific fragment of the a1(I) collagen promoter verified the presence of β2-adrenergic receptors on osteoblasts (FIG. 13B). No other adrenergic receptor subtype could be detected. […] Electron micrographs confirmed the presence of unmyelinated peripheral nerve axons coursing through the marrow adjacent to bone trabeculae and to osteoblasts (FIG. 13E). β-adrenergic receptors are G-coupled receptors that signal through the cAMP pathway (see, e.g., Benovic et al., 1988, Annu Rev Cell Biol 4:405-428). Thus, to assess the biologic relevance of the presence of β2-adrenergic receptors on osteoblasts, these cells were treated with isoproterenol, a β-adrenergic agonist, alone or in the presence of propranolol, a β-adrenergic receptor antagonist; with norepinephrine, the natural ligand of β-adrenergic receptors; with phenylephrine, an α-adrenergic agonist or with vehicle and measured cAMP production. As a positive control, parathyroid hormone (PTH) that binds to another G-coupled receptor present in osteoblasts was used (Gardella & Juppner, 2001, Trends Endocrinol Metab 12:210-217.). […] These effects were abolished by propranolol treatment. […]

[2] = system: human SaOS-2 osteoblastic cells; test: cAMP production in human SaOS-2 osteoblastic cells; format: cell-based; conditions: SaOS-2, added to β-adrenergic receptor agonists
Description: as §1
For a sympathetic regulation of bone formation to exist several requirements have to be fulfilled. The first one is that functional adrenergic receptors are present on osteoblasts. […] No other adrenergic receptor subtype could be detected. […] Thus, to assess the biologic relevance of the presence of β2-adrenergic receptors on osteoblasts, these cells were treated with isoproterenol, a β-adrenergic agonist, alone or in the presence of propranolol, a β-adrenergic receptor antagonist; with norepinephrine, the natural ligand of β-adrenergic receptors; with phenylephrine, an α-adrenergic agonist or with vehicle and measured cAMP production. […]

[3] = system: primary osteoblasts; test: Gene expression and apoptosis in primary osteoblasts; format: cell-based, mouse; conditions: primary osteoblasts, isoproterenol plus propranolol
Description: as §1
To elucidate the bases of the antiosteogenic effect of isoproterenol in vivo, osteoblast proliferation, gene expression and apoptosis were studied.

[4] = system: wt mice; test: Propranolol treatment of wt mice; format: in vivo, mouse
Description: (§2) Wildtype (C57BL/6J) and mutant (C57BL/6J A^y/a, C57BL/6J ob/ob) mice were obtained from the Jackson laboratory and adrenal medullectomized mice from Harlan Tecklad laboratory. Dbh−/− mice were rescued as previously described (Thomas et al., 1998, Neurochem 70:2468-2476). Isoproterenol (Sigma) was injected intraperitoneally (ip) once daily for 6 weeks at 30 mg/kg (wt) or 3 mg/kg (ob/ob). Propranolol (Sigma) was added to the drinking water at a concentration of 0.5 g/l. For ICV infusion, a 28-gauge cannula (Brain infusion kit II, Alza) was implanted into the third ventricle as previously described infusing human leptin (Sigma) at 8 ng/hr or MT-II at 125 ng/hr (Phoenix Pharmaceuticals) for 28 days (see, e.g., Ducy et al., 2000, Cell 100: 197-207). The cannula was connected to an osmotic pump (Alza) placed in the dorsal subcutaneous space of the animal. For parabiosis longitudinal incisions were made in the skin and in the peritoneal cavity along one side on each mouse. Edges of the incisions were connected by suture to induce coelioanastomosis. Cross-circulation was quantified by injecting 1 ml/kg 0.25% Evans blue into the tail vein of one mouse of the parabiosed pair. After 30 min. blood was collected from both mice by retroorbital bleeding and the blood exchange rate was calculated according to standard techniques (see, e.g., Harris & Martin, 1984, Am J Physiol 247:R380-386). […] Two weeks after parabiosis a pump delivering leptin ICV in one animal of each pair was implanted. For GTG lesioning, 4-week-old C57BL/6J mice were given a single ip injection of either PBS or GTG (0.5 mg/g). For MSG lesioning, 2 day-old C57BL/6J pups were injected daily subcutaneously with either PBS or MSG (2 mg/g) for 10 days.
Histological analyses were performed on undecalcified sections stained by von Kossa and counterstained by von Gieson (see, e.g., Ducy et al., 2000, Cell 100:197-207). Static and dynamic histomorphometric analyses were performed according to standard protocols (see, e.g., Parfitt et al., 1987, J Bone Miner Res 6:595-610) using the Osteomeasure Analysis System (Osteometrics, Atlanta). Six to 12 animals were analyzed for each group. Statistical significance was assessed by Student's t test.
as §1
The most important biomedical requirement for regulation of bone formation by the SNS is that β-adrenergic antagonists (β blockers) should increase bone mass by increasing bone formation. To address this point, wt mice were treated for 5 weeks with propranolol (0.4 mg/day). […] In some propranolol-treated mice the bone volume matched what is observed in ob/ob mice. […]

[5] = system: ovariectomized wt mice; test: Propranolol treatment of ovariectomized wt mice; format: in vivo, mouse
Description: as §2
To test if it was the case ovariectomy in 6 week-old wt mice was performed and the mice were treated for 7 weeks with propranolol or vehicle. Estrogen depletion by ovariectomy decreased bone mass in vehicle-treated mice. […] This latter result underscores the physiologic and therapeutic importance of the sympathetic regulation of bone formation.

[6] = system: rats; conditions: rats treated with propranolol; cited from earlier work

CC(C)NCC(O)COc1cccc2ccccc12 (stereo not shown) [propranolol]
effect on agonist-induced cAMP production [1]: abolished | effect on agonist-induced cAMP production [2]: inhibited | inhibitory effect of isoproterenol on gene expression [3]: reversed | Bone Volume ([4]; Wild-type + propranolol): High | hyperinsulinism or other hormonal modifications ([4]; wt mice): did not cause | body weight and fat pad weight ([4]; wt mice, 5 weeks, 0.4 mg/day): remained normal | bone formation rate ([4]; wt mice, 5 weeks, 0.4 mg/day): increase | number of osteoblasts ([4]; wt mice, 5 weeks, 0.4 mg/day): increase | bone mass in vertebrae and long bones ([4]; wt mice, 5 weeks, 0.4 mg/day (drinking water 0.5 g/l)): significant increase | bone formation rate vs control ovariectomized mice ([5]; ovariectomized mice, 7 weeks): striking increase | osteoblast number vs control ovariectomized mice ([5]; ovariectomized mice, 7 weeks): striking increase | bone mass ([5]; ovariectomy at 6 weeks of age, treated for 7 weeks): normal | femoral metaphyseal mineral apposition rates [6]: Increased
